Assay results as given in publication PMC7044277 (Nature Communications, 2020).
Several values for one entry are separate records, joined by “and”; a condition that tells them apart may be missing. Identical values can stand only once.

Key:
Type in all cases: cell-based
[1] = molecular target: T1, DRD2 S1975.46G (Homo sapiens, UniProt P14416, S197G); assay: Gαi/o-mediated cAMP inhibition (GloSensor), mutant; settings: DRD2 Ser197^5.46Gly; G-protein assay
T1 construct: expressed in transfected cells; host or cells: HEK293T (ATCC CRL-11268)

[2] = molecular target: T2, 5HT6 (Homo sapiens, UniProt P50406); assay: β-arrestin2 recruitment (Tango); settings: Fig_S10p, agonist mode
T2 construct: expressed in transfected cells; host or cells: HTLA cells expressing TEV-fused β-arrestin2

[3] = molecular target: DRD1 (Homo sapiens, UniProt P21728); assay: β-arrestin2 recruitment (Tango); settings: agonist mode
[4] = molecular target: T3, DRD2 S1935.42G (Homo sapiens, UniProt P14416, S193G); assay: Gαi/o-mediated cAMP inhibition (GloSensor), mutant; settings: DRD2 Ser5.42Gly; G-protein assay
T3 construct: expressed in transfected cells; host or cells: HEK293T (ATCC CRL-11268)

[5] = molecular target: T4, 5HT2C (Homo sapiens, UniProt P28335); assay: β-arrestin2 recruitment (Tango); settings: Fig_S10m; for β-arrestin2 recruitment response in presence of serotonin (replicate values): +10μM serotonin; for β-arrestin2 recruitment response (dose-response source data, replicate values): drug alone
T4 sequence (P28335 33-458): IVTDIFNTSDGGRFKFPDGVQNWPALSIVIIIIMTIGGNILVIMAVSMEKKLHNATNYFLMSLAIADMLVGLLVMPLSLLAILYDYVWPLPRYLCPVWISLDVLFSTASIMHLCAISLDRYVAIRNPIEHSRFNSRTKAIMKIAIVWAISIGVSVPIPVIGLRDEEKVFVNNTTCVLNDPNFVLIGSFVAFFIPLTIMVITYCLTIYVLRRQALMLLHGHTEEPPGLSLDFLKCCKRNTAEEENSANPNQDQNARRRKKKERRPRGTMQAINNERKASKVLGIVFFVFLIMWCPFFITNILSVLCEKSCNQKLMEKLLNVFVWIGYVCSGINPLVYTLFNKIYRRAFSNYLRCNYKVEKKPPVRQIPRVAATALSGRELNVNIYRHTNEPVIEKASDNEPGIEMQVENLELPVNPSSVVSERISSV

T2 sequence (P50406 whole entry, the tested form may be a part): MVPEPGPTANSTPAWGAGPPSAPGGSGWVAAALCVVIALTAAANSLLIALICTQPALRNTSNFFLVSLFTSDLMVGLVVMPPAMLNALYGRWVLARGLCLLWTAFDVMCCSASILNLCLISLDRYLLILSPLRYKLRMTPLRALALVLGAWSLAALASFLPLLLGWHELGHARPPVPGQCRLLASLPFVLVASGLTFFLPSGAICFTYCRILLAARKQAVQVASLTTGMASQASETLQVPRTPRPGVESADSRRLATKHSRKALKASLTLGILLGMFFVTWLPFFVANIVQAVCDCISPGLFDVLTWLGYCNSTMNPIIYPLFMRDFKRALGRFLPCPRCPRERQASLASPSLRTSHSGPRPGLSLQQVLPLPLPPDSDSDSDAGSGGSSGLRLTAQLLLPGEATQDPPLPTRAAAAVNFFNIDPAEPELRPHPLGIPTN
Chain of DRD1 (P21728 whole entry): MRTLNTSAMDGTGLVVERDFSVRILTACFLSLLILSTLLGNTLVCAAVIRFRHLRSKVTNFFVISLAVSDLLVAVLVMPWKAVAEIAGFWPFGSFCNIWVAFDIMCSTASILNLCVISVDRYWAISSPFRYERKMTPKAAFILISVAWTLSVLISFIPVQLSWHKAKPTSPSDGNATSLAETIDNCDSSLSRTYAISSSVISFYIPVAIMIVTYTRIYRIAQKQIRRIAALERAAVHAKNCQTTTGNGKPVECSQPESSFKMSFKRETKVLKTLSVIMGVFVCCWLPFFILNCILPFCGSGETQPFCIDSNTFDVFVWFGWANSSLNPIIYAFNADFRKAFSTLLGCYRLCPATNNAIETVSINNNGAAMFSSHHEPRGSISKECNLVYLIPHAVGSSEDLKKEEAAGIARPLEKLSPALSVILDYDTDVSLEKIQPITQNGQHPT
T1 sequence (P14416 whole entry S197G): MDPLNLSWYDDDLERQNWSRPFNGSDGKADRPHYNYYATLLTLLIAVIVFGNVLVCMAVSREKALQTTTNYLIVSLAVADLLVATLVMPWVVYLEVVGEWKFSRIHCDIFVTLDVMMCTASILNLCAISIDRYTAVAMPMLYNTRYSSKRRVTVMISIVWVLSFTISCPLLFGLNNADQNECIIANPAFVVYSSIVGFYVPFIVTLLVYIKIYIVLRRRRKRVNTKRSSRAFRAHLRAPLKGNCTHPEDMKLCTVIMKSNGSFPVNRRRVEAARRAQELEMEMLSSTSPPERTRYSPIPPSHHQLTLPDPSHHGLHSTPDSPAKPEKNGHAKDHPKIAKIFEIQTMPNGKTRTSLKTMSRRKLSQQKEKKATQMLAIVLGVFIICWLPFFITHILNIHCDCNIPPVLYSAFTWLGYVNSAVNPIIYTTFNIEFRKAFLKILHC
T3 sequence (P14416 whole entry S193G): as the sequence (P14416 whole entry S197G) above, with S193G, G197S counted along it

SMILES: CCOc1cccc2cc([C@@H](C)NCC3(O)CCCCC3)oc12 [O4RE6]
- agonism after serine to glycine substitution [1]: impaired
- β-arrestin2 recruitment response, replicate points of concentration-response curve ([2]; Log[Drug] -6): 0.6179
- β-arrestin2 recruitment response, replicate points of concentration-response curve ([2]; Log[Drug] -6.52): 2.255 and 6.005 and -0.9593 and 0.5245 and -8.852 and -1.095 and 3.803 and 14.7296 and 1.5314
- β-arrestin2 recruitment response, replicate points of concentration-response curve ([2]; Log[Drug] -7): 2.737 and -0.8021 and 0.3035 and -9.828 and -11.4107 and -3.313 and -1.206 and -3.514 and 45.5574
- β-arrestin2 recruitment response, replicate points of concentration-response curve ([2]; Log[Drug] -7.52): 9.506 and 14.1402 and 17.6522 and -10.6377 and -5.208 and -2.549 and -1.295 and 2.071 and -1.605
- β-arrestin2 recruitment response, replicate points of concentration-response curve ([2]; Log[Drug] -8): -0.645 and 1.165 and 0.2927 and -3.147 and 13.2695 and -12.1837 and -4.853 and 0.614 and -2.656
- β-arrestin2 recruitment response, replicate points of concentration-response curve ([2]; Log[Drug] -8.52): -0.1626 and 4.9103 and -0.3035 and -9.285 and -10.3985 and -13.5456 and -5.689 and -5.904 and -4.713
- β-arrestin2 recruitment response, replicate points of concentration-response curve ([2]; Log[Drug] -9): 5.962 and 3.36 and 0.775 and -2.264 and 6.672 and -11.4475 and -4.468 and 0.05179 and -2.649
- β-arrestin2 recruitment response, replicate points of concentration-response curve ([2]; Log[Drug] -9.52): 0.7804 and -0.09756 and 1.653 and -9.57 and -13.2511 and -10.2512 and -0.9174 and -5.319 and -2.049
- β-arrestin2 recruitment response, replicate points of concentration-response curve ([2]; Log[Drug] -10): -1.848 and 4.038 and 4.894 and -4.813 and -13.9689 and -2.9539 and 13.3388 and -5.371 and 2.353
- β-arrestin2 recruitment response, replicate points of concentration-response curve ([2]; Log[Drug] -10.52): 1.577 and 1.859 and -0.3143 and -10.7113 and -10.242 and -8.8801 and -0.04439 and -4.439 and 2.981
- β-arrestin2 recruitment response, replicate points of concentration-response curve ([2]; Log[Drug] -11): -1.149 and 2.054 and 0.1355 and -7.003 and -10.3432 and 9.598 and -3.27 and -3.4993 and -5.608
- β-arrestin2 recruitment response, replicate points of concentration-response curve ([2]; Log[Drug] -11.52): -1.182 and 12.7148 and 3.068 and 1.2699 and -8.8985 and -8.135 and 6.251 and -5.941 and -5.608
- Fig_S10d concentration-response source data, compound alone (replicates) ([3]; Log[Drug] -6.52): 1.905
- Fig_S10d concentration-response source data, compound alone (replicates) ([3]; Log[Drug] -7): 1.064 and 2.282 and -0.6391 and 0.289 and -0.08278 and 0.4865 and -0.4054 and 1.577 and 0.01217
- Fig_S10d concentration-response source data, compound alone (replicates) ([3]; Log[Drug] -7.52): 1.077 and 0.9051 and -0.1158 and 0.04295 and -0.04452 and 0.1062 and 0.53 and 4.578 and 0.07397
- Fig_S10d concentration-response source data, compound alone (replicates) ([3]; Log[Drug] -8): 0.3903 and 0.04289 and 0.7249 and 0.1109 and 0.1132 and -0.0164 and 0.2378 and 0.7481 and 0.5777
- Fig_S10d concentration-response source data, compound alone (replicates) ([3]; Log[Drug] -8.52): 1.047 and 2.106 and 1.068 and 0.04686 and -0.2007 and -0.1148 and -0.01592 and 0.004682 and 0.05431
- Fig_S10d concentration-response source data, compound alone (replicates) ([3]; Log[Drug] -9): 0.3903 and 1.591 and 1.077 and 0.9231 and 0.04452 and 0.3311 and -0.4785 and 2.978 and 0.1554
- Fig_S10d concentration-response source data, compound alone (replicates) ([3]; Log[Drug] -9.52): 0.3689 and -0.1244 and 0.7292 and 0.2936 and 0.3303 and 0.01406 and 0.5824 and 0.412 and 0.617
- Fig_S10d concentration-response source data, compound alone (replicates) ([3]; Log[Drug] -10): 7.429 and 0.8836 and 0.03432 and 0.6724 and -0.1109 and 0.4569 and -0.09176 and 0.9157 and -0.1386
- Fig_S10d concentration-response source data, compound alone (replicates) ([3]; Log[Drug] -10.52): -0.3217 and 1.253 and 1.072 and 0.2647 and -0.2624 and -0.04452 and -0.9541 and 0.426 and 0.1283
- Fig_S10d concentration-response source data, compound alone (replicates) ([3]; Log[Drug] -11): 0.05147 and 1.072 and 2.964 and 0.7974 and -0.07497 and -0.2936 and -0.2444 and 1.441 and -0.4363
- Fig_S10d concentration-response source data, compound alone (replicates) ([3]; Log[Drug] -11.52): 1.244 and 0.2102 and -0.6649 and -0.01562 and -0.1695 and 0.02187 and -0.1648 and 0.6545 and -0.5449
- Fig_S10d concentration-response source data, compound alone (replicates) ([3]; Log[Drug] -12): 0.04289 and 4.504 and 6.396 and -0.1351 and 0.3358 and -0.1991 and -0.1554 and -0.2734 and -0.1919
- agonism after serine to glycine substitution [4]: impaired
- β-arrestin2 recruitment response in presence of serotonin (replicate values) ([5]; Log[Drug] -5): 58.3147 and 46.4286 and 67.806 and 58.4132 and 79.4697 and 68.0017 and 93.0961 and 72.2806 and 97.8926
- β-arrestin2 recruitment response (dose-response source data, replicate values) ([5]; Log[Drug] -5): 0.7157 and -0.5401 and -1.168 and 2.766 and 0.7235 and 1.739 and 11.316 and 1.077 and 3.549
- β-arrestin2 recruitment response in presence of serotonin (replicate values) ([5]; Log[Drug] -5.52): 54.8113 and 63.0121 and 49.2529 and 68.8758 and 64.9488 and 66.315 and 83.0753 and 67.6275 and 72.9664
- β-arrestin2 recruitment response (dose-response source data, replicate values) ([5]; Log[Drug] -5.52): 1.749 and 2.795 and -1.663 and 3.765 and 1.711 and -0.08172 and 1.356 and 7.494 and -2.02
- β-arrestin2 recruitment response in presence of serotonin (replicate values) ([5]; Log[Drug] -6): 55.8065 and 61.1873 and 58.6737 and 61.6241 and 75.6253 and 78.232 and 62.8429 and 85.8382 and 64.0091
- β-arrestin2 recruitment response (dose-response source data, replicate values) ([5]; Log[Drug] -6): 3.06 and -0.5319 and 0.7534 and 2.096 and -0.5619 and -0.6198 and -1.437 and 2.573 and 0.749
- β-arrestin2 recruitment response in presence of serotonin (replicate values) ([5]; Log[Drug] -6.52): 70.8253 and 57.3668 and 57.1998 and 54.2043 and 49.8953 and 65.9707 and 67.8605 and 93.5331 and 78.9014
- β-arrestin2 recruitment response (dose-response source data, replicate values) ([5]; Log[Drug] -6.52): -0.8494 and -0.7143 and 0.1419 and 1.691 and -0.2222 and -0.8824 and 6.685 and 2.505 and 2.238
- β-arrestin2 recruitment response in presence of serotonin (replicate values) ([5]; Log[Drug] -7): 78.7809 and 65.1211 and 66.7181 and 78.276 and 64.6889 and 65.4492 and 69.2492 and 67.696 and 63.7064
- β-arrestin2 recruitment response (dose-response source data, replicate values) ([5]; Log[Drug] -7): -1.487 and -0.5714 and -1.709 and 1.211 and 0.5059 and 0.1139 and 0.4054 and 1.8599 and -0.4067
- β-arrestin2 recruitment response in presence of serotonin (replicate values) ([5]; Log[Drug] -7.52): 60.5159 and 63.0454 and 62.4237 and 65.5364 and 59.1349 and 50.606 and 95.9761 and 69.8099 and 82.5107
- β-arrestin2 recruitment response (dose-response source data, replicate values) ([5]; Log[Drug] -7.52): 4.965 and 0.04923 and -3.23 and 2.115 and 1.39 and -0.6014 and 1.1728 and 0.6792 and -0.974
- β-arrestin2 recruitment response in presence of serotonin (replicate values) ([5]; Log[Drug] -8): 71.3267 and 75.4455 and 66.4208 and 75.6262 and 64.4484 and 59.5931 and 70.3904 and 75.8595 and 73.1664
- β-arrestin2 recruitment response (dose-response source data, replicate values) ([5]; Log[Drug] -8): 1.2751 and -0.6351 and 2.803 and -0.01928 and -0.2938 and -0.4398 and 3.201 and 7.224 and -1.315
- β-arrestin2 recruitment response in presence of serotonin (replicate values) ([5]; Log[Drug] -8.52): 58.0598 and 61.1071 and 60.9165 and 75.2534 and 73.2353 and 72.7725 and 80.2506 and 68.3081 and 73.8075
- β-arrestin2 recruitment response (dose-response source data, replicate values) ([5]; Log[Drug] -8.52): 1.412 and -1.374 and -2.167 and -0.9173 and -0.6234 and -0.001836 and -1.0517 and 2.438 and -0.7292
- β-arrestin2 recruitment response in presence of serotonin (replicate values) ([5]; Log[Drug] -9): 62.3446 and 66.0878 and 69.0787 and 68.4846 and 71.5679 and 75.9558 and 57.0421 and 71.8594 and 68.3133
- β-arrestin2 recruitment response (dose-response source data, replicate values) ([5]; Log[Drug] -9): 8.947 and 0.2944 and -1.358 and 0.06794 and 1.215 and 1.023 and 1.659 and -1.676 and 1.911
- β-arrestin2 recruitment response in presence of serotonin (replicate values) ([5]; Log[Drug] -9.52): 55.4527 and 57.9556 and 67.8156 and 72.3217 and 60.5213 and 59.5912 and 64.5922 and 60.3604 and 70.7827
- β-arrestin2 recruitment response (dose-response source data, replicate values) ([5]; Log[Drug] -9.52): 0.7577 and 0.9406 and -1.056 and 0.774 and -0.8934 and -0.3755 and 4.117 and -0.7424 and 3.815
